Data as given in ChEMBL document CHEMBL1201862, “PubChem BioAssay data set” (2004).
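All cell lines were grown in 96-well plates and treated with compound for 48 hours. Abbreviation: GI50, concentration required for 50% inhibition of growth.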 Active and inactive are the calls of the source. Cut-off read from the data, not from the text of the source: active = GI50 up to about 1.1 µM and inactive = higher.

How the values were obtained:
Test in all cases: NCI-60 cell line screen, 48 h
SK-MEL-2 = tested on: SK-MEL-2
MDA-N = tested on: MDA-N
A549 = tested on: A549
OVCAR-8 = tested on: OVCAR-8
HCT-15 = tested on: HCT-15
Malme-3M = tested on: Malme-3M
NCI-H23 = tested on: NCI-H23
CAKI-1 = tested on: CAKI-1
SNB-75 = tested on: SNB-75
HT-29 = tested on: HT-29
KM12 = tested on: KM12
OVCAR-3 = tested on: OVCAR-3
SK-MEL-5 = tested on: SK-MEL-5
NCI/ADR-RES = tested on: NCI/ADR-RES
DU-145 = tested on: DU-145
EKVX = tested on: EKVX
NCI-H522 = tested on: NCI-H522
PC-3 = tested on: PC-3
MDA-MB-435 = tested on: MDA-MB-435
MDA-MB-231 = tested on: MDA-MB-231
ACHN = tested on: ACHN
SK-MEL-28 = tested on: SK-MEL-28
U-251 = tested on: U-251
UACC-257 = tested on: UACC-257
MCF7 = tested on: MCF7
BT-549 = tested on: BT-549
HOP-92 = tested on: HOP-92
M14 = tested on: M14
HL-60 = tested on: HL-60
UACC-62 = tested on: UACC-62
OVCAR-4 = tested on: OVCAR-4
HCC 2998 = tested on: HCC 2998
A498 = tested on: A498
HOP-62 = tested on: HOP-62
SK-OV-3 = tested on: SK-OV-3
LOX IMVI = tested on: LOX IMVI
COLO 205 = tested on: COLO 205
UO-31 = tested on: UO-31
SF-295 = tested on: SF-295
RPMI-8226 = tested on: RPMI-8226
K562 = tested on: K562
CCRF-CEM = tested on: CCRF-CEM
IGROV-1 = tested on: IGROV-1
SW-620 = tested on: SW-620
SF-268 = tested on: SF-268
NCI-H226 = tested on: NCI-H226
MOLT-4 = tested on: MOLT-4
RXF 393 = tested on: RXF 393
786-0 = tested on: 786-0
NCI-H460 = tested on: NCI-H460
HCT-116 = tested on: HCT-116
OVCAR-5 = tested on: OVCAR-5
T47D = tested on: T47D
SN12C = tested on: SN12C
Hs-578T = tested on: Hs-578T
SR = tested on: SR
SNB-19 = tested on: SNB-19
SF-539 = tested on: SF-539
TK-10 = tested on: TK-10

Measured: GI50

O=C1OCC2OC(=O)c3cc(O)c(O)c(O)c3-c3c(O)c(O)c(O)c4c3C(=O)OC(C2OC(=O)c2cc(O)c(O)c(O)c2-c2c1cc(O)c(O)c2O)C1OC(=O)c2c-4c(O)c(O)c(O)c2[C@@H]1C(O)C(O)C(O)C(O)CO (stereo not given in full)
inactive: SK-MEL-2 21.6 µM | MDA-N 7.11 µM | A549 16.4 µM | OVCAR-8 23.3 µM | Malme-3M 18.1 µM | NCI-H23 19.2 µM | CAKI-1 13.6 µM | HT-29 14.4 µM | KM12 22 µM | OVCAR-3 28.2 µM | SK-MEL-5 14.1 µM | NCI/ADR-RES 22.2 µM | DU-145 20.2 µM | EKVX 19.8 µM | NCI-H522 18.8 µM | PC-3 20.7 µM | MDA-MB-435 4.42 µM | MDA-MB-231 12.7 µM | ACHN 16.5 µM | SK-MEL-28 49.1 µM | U-251 20.4 µM | UACC-257 19.4 µM | MCF7 3.82 µM | BT-549 22.8 µM | HOP-92 18.2 µM | M14 17.8 µM | HL-60 17 µM | UACC-62 17.8 µM | OVCAR-4 16.6 µM | HCC 2998 21.6 µM | A498 26.4 µM | HOP-62 17.9 µM | SK-OV-3 27.4 µM | LOX IMVI 2.25 µM | COLO 205 15.7 µM | UO-31 17.8 µM | SF-295 20.1 µM | RPMI-8226 29 µM | K562 10.5 µM | CCRF-CEM 4.75 µM | IGROV-1 20 µM | SW-620 19.5 µM | SF-268 21.5 µM | NCI-H226 17.6 µM | MOLT-4 20.4 µM | RXF 393 19.3 µM | 786-0 17.4 µM | NCI-H460 17.6 µM | HCT-116 16.2 µM | OVCAR-5 16 µM | T47D 19.1 µM | SN12C 16 µM | Hs-578T 27.9 µM | SR 22.5 µM | SNB-19 46 µM
16.1 µM: HCT-15
active: SNB-75 < 0.01 µM

O=C(O)c1c2c(cc3c1CC1(Cc4cc5c(cc4C1=O)CCC5)C3)CCC2 (stereo not given)
74.1 µM: HCT-15
inactive: SK-MEL-2 > 100 µM | MDA-N > 100 µM | A549 54.8 µM | OVCAR-8 > 100 µM | Malme-3M > 100 µM | NCI-H23 81.1 µM | SNB-75 > 100 µM | HT-29 > 100 µM | KM12 89.5 µM | OVCAR-3 56.4 µM | SK-MEL-5 > 100 µM | NCI/ADR-RES > 100 µM | DU-145 98.2 µM | EKVX 87.5 µM | NCI-H522 76.4 µM | PC-3 > 100 µM | MDA-MB-435 > 100 µM | MDA-MB-231 > 100 µM | ACHN 56.4 µM | SK-MEL-28 26.9 µM | U-251 85.9 µM | UACC-257 56.6 µM | MCF7 42.4 µM | BT-549 86.3 µM | HOP-92 > 100 µM | M14 > 100 µM | HL-60 65.2 µM | UACC-62 > 100 µM | OVCAR-4 52.2 µM | HCC 2998 51.9 µM | A498 > 100 µM | HOP-62 > 100 µM | SK-OV-3 > 100 µM | LOX IMVI 57.1 µM | COLO 205 52.4 µM | UO-31 > 100 µM | SF-295 > 100 µM | RPMI-8226 > 100 µM | K562 52.4 µM | CCRF-CEM 46.2 µM | IGROV-1 > 100 µM | SW-620 > 100 µM | SF-268 > 100 µM | NCI-H226 > 100 µM | MOLT-4 50.8 µM | RXF 393 92.9 µM | 786-0 > 100 µM | NCI-H460 71.1 µM | SF-539 > 100 µM | HCT-116 87.5 µM | OVCAR-5 > 100 µM | T47D 80 µM | SN12C > 100 µM | Hs-578T > 100 µM | TK-10 > 100 µM | SR 20.7 µM | SNB-19 > 100 µM
